In patent publication US11773087B2, “GLP-1R receptor agonist compound and use thereof” (SUZHOU VINCENTAGE PHARMA CO., LTD, priority 2020, dated 2023):
Like-named read-outs stand apart in the source and are kept apart here.

Key:
human GLP-1R receptor = biological target: T1, human GLP-1R receptor (Homo sapiens, UniProt P43220); experiment: GLP-1R cAMP assay (HTRF, HEK293 cells expressing GLP-1R); format: cell-based; details: agonistic activity, GLP-1R HEK293 cells
T1 construct: expressed in transfected cells; host or cells: 'GLP-1R cells' (frozen vial)
Description: Test Embodiment 1: Activity Test of GLP-1R cAMP Assay
This experiment aims to verify the agonistic activity of the compound of the present disclosure on human GLP-1R receptor.
Compounds were diluted 4-fold starting at 100 μM from DMSO using Bravo for a total of 10 points.
The reference compound polypeptide GLP-1 (7-37) was diluted 4-fold starting from 500 nM in DMSO using Bravo for a total of 10 points.
b) Preparation of Cell Suspension: • 1) 1 vial of GLP-1R cells was quickly thawed in a 37° C. water bath. • 2) The suspension of the cells was transferred to 10 mL of HBSS in a 15 mL conical tube. • 3) The cells were centrifuged at 1000 rpm for 5 min at room temperature to precipitate the cells. • 4) The supernatant was gently aspirated, and being careful not to aspirate the cells. • 5) The cells were relaxed by flicking the precipitation, and then the cell precipitation was re-suspended in 10 mL of HBSS. A sterile pipette was used to move fluid up and down to remove clumps. • 6) The concentration of cells was counted and the cell viability on Vi-cell was determined. • 7) GLP-1R cells were re-suspended in the test buffer at a concentration of 2.0×E5/mL cells. • 8) 10 μL of GLP-1R cell was transferred to OptiPlate-384 well plate.
c) Transfer of Compound: • 1) 100 nL of compound was transferred to OptiPlate-384 plate using Echo Transfer. • 2) The plate was rotated at 1000 rpm for 5 seconds.
d) HTRF cAMP Analysis of Agonists: • 1) The plate was incubated at room temperature for 30 minutes before adding detection reagents. • 2) An electric multi-channel pipette was used to add 10 μL of detection reagents respectively. • 3) The 384 well plate was covered with TopSeal-A membrane and incubated for 60 min at room temperature.
TopSeal-A was unloaded and read on EnVision.

[1] = Pharmacokinetic evaluation in rats (gavage); format: in vivo; details: rat, 10 mg/kg single oral gavage, plasma
Description: Test Embodiment 2: Pharmacokinetic Evaluation in Rats
The drug concentrations in the plasma of rats were tested at different times after the administration of the compounds by gavage using rats as test animals. The pharmacokinetic behavior of the compounds of the present disclosure in rats was studied and their pharmacokinetic characteristics were evaluated. In each group of embodiments, 3 rats with similar body weight were selected and administered orally at a dose of 10 mg/kg for a single administration. Blood was collected from animals at 15 min, 30 min, 1 h, 2 h, 4 h, 6 h, 8 h, 12 h, 24 h time points after administration. The LC-MS/MS analysis method was used to detect the content of the compound in plasma, and the lower limit of quantification of the method was 20 ng/mL. Concentration data in plasma was counted using the metabolic kinetic data analysis software WinNonlin 7.0, and the pharmacokinetic parameters were calculated using the non-compartmental analysis (NCA), as shown in Table 2 below.
Drug configuration: A certain amount of drug was taken, added with 2% Klucel LF+0.1% Tween 80 aqueous solution to prepare a clear solution or a uniform suspension.
Administration: Rats were administered by gavage after overnight fasting at a dose of 10 mg/kg.
Operation: Rats were administered by gavage, and blood was collected from the tail vein before administration and 15 min, 30 min, 1 h, 2 h, 4 h, 6 h, 8 h, 12 h, 24 h after administration, placed in heparinized sample tubes, centrifuged at 4° C., 3500 rpm for 10 min to separate plasma, stored at −20° C., and fed 2 hours after administration.
Determination of the content of test compounds in rat plasma after drug administration by gavage: 50 μL of plasma samples were thawed at room temperature, added with 130 μL of internal standard working solution (1000 ng/mL, acetonitrile, tolbutamide), vortexed for about 1 min and then centrifuged for 10 min at 4° C. and 13000 rpm. 50 μL of supernatant was mixed with 100 μL of 50% acetonitrile in water, and then the sample was injected for LC/MS/MS analysis.

[2] = Pharmacokinetic evaluation of cynomolgus monkey (IV and oral); format: in vivo, cynomolgus monkeys; details: for AUC(0-t): read-out: AUC0-24 h
Description: Test Embodiment 3: Pharmacokinetic Evaluation of Cynomolgus Monkey
The drug concentrations in the plasma of cynomolgus monkeys were tested at different times after intravenous injection and oral administration of the compounds using cynomolgus monkeys as test animals. The pharmacokinetic behavior of the compounds of the present disclosure in cynomolgus monkeys was studied and their pharmacokinetic characteristics were evaluated. In each group of embodiments, 2 cynomolgus monkeys with similar body weight were selected, administered at a dose of 1 mg/kg by intravenous injection and at a dose of 50 mg/kg by oral administration for a single administration.
Age of cynomolgus monkeys at the time of administration: about 2-4 years old; body weight: 3.0-4.6 kg at the beginning of administration; 4 monkeys; sex: male.
Intravenous group: The final concentration of 0.5 mg/mL was prepared for intravenous administration, and the preparation solvent was 5% DMSO+45% PEG400+50% water, and the preparation was in a clarified solution.
Oral group: The final concentration of 10 mg/mL was prepared for oral administration, and the preparation solvent was 5% DMSO+45% PEG400+50% water, and the preparation was in homogeneous suspension.
Blood was collected from animals at 5 min, 15 min, 30 min, 1 h, 2 h, 4 h, 7 h, 12 h, 24 h time points after administration. The LC-MS/MS analysis method was used to detect the content of the compound in plasma, and the lower limit of quantification of the method was 20 ng/mL. Concentration data in plasma was counted using the metabolic kinetic data analysis software WinNonlin 7.0, and the pharmacokinetic parameters were calculated using the non-compartmental analysis (NCA), as shown in Table 3 below.
Determination of the content of test compounds in the plasma of cynomolgus monkeys after drug administration: After blood samples were collected, placed in a marked ice-bath centrifuge tube, and rapidly centrifuged to separate the plasma. Centrifugation conditions: 4000 rpm, 10 minutes, 4° C., and plasma was stored at −40° C. or less for testing.

[3] = obese patients, cited from earlier work

T1 sequence (P43220 24-463): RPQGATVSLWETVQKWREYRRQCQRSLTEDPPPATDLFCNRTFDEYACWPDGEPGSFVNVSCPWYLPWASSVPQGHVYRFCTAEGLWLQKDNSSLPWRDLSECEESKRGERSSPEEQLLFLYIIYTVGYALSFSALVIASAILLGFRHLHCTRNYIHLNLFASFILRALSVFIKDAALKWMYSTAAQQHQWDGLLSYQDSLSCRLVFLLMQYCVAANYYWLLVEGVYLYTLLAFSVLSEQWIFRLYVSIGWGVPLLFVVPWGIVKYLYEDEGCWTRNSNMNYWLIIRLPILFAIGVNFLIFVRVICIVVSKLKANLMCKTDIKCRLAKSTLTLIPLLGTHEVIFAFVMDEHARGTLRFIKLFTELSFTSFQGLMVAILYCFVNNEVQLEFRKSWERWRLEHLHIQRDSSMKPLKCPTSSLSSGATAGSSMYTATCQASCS

EC50 (human GLP-1R receptor) [nM]	AUC(0-inf) [1] [ng·h/mL]	Cmax [1] [ng/mL]	Tmax [1] [min]	half-life [1] [min]	F ([2]; 50 mg/kg PO vs 1 mg/kg IV, oral bioavailability) [%]	Cmax ([2]; male, 1 mg/kg IV, plasma) [ng/mL]	Tmax ([2]; male, 1 mg/kg IV, plasma) [h]	clearance ([2]; male, 1 mg/kg IV, plasma) [mL/min/kg]	half-life ([2]; male, 1 mg/kg IV, plasma) [min]	AUC(0-t) ([2]; male, 1 mg/kg IV, plasma) [ng·h/mL]	Cmax ([2]; male, 50 mg/kg PO, plasma) [ng/mL]	Tmax ([2]; male, 50 mg/kg PO, plasma) [h]	half-life ([2]; male, 50 mg/kg PO, plasma) [min]	concentration at 24 h ([2]; male, 50 mg/kg PO, plasma, 24 h, read-out: C24 h) [ng/mL]	AUC(0-t) ([2]; male, 50 mg/kg PO, plasma) [ng·h/mL]	Molecule	patients with ≥5% weight loss ([3]; 2.4 mg group, 68 weeks) [%]	decrease of mean baseline body weight ([3]; 2.4 mg, 68 weeks of treatment, baseline 105.3 kg) [%]
0.9	1030	1160	15	155	51.2	1590	0.083	19.2	58.8	898	2440	2.5	1360	597	23000	O=C(O)c1ccc2nc(CN3CCC(c4ccccc4OCc4ccc(Cl)cc4F)CC3)n(C[C@@H]3CCO3)c2c1 [Compound 3]		
																semaglutide	86.4	14.9
